Results as given in patent publication US20240293352A1 (priority 2021, published 2024).

Test system: VSVD51-GFP in 786-0 cells
Assay type: cell-based, human
Conditions: not given

Row | Compound | Viral sensitization activity / VSVD51 spread (in words) | Approximate Peak Viral Sensitizer Dose [µM]
1 | vanadium (IV) citrate [CDOS139] | exhibited viral sensitization activity | –
2 | [O]=[V]([O-])([O-])[O-] [Vanadate, vanadate, reference compound] | increase in GFP foci | 200
3 | vanadium (V) citrate [CDOS140] | exhibited viral sensitization activity | 30
4 | vanadium (V) citrate peroxo [CDOS141] | exhibited viral sensitization activity | 50

Test system: oncolytic RNA viruses including vesicular stomatitis virus (VSV) and measles
Conditions: cited from earlier work

Row | Compound | Replication and spread of oncolytic RNA viruses (in words)
5 | Cc1occc(=O)c1[O-].Cc1occc(=O)c1[O-].[O]=[V+2] [BMOV, bismaltolatoxovanadate] | improve the replication and spread of oncolytic RNA viruses
6 | [O]=[V]([O-])([O-])[O-] [orthovanadate] | improve the replication and spread of oncolytic RNA viruses
